# Source: PMC6738096 (British Journal of Cancer, 2019)
# Test: Phase 1 dose-escalation trial: safety and tolerability (TEAEs, SAEs, DLT, MTD, RP2D)
# Protocol: Endpoints included the incidence of DLTs (defined in the ‘Safety' section) in the first 28-day treatment cycle (cycle 1), the frequency and severity of adverse events (AEs) and serious AEs (SAEs) and changes in laboratory values, vital signs, physical examination findings and Eastern Cooperative Oncology Group (ECOG) performance status (PS).
# The starting dose was 30 mg, which was determined by review of nonclinical toxicokinetic assessments. A treatment cycle comprised 28 days in the absence of disease progression or unacceptable toxicity. Patients received starting doses ranging from 30 mg once every 24 hours (Q24h) to 480 mg Q24h, and escalation proceeded based on a 3 + 3 design.
# The subsequent cohort started at a reduced dosing regimen. Additional dosing schedules were once every 12 hours (Q12h) at 30 and 60 mg and once every 8 hours (Q8h) at 20 and 40 mg.
# Toxicities were graded and recorded according to NCI CTCAE version 4.03. Patients were assessed for DLTs during the first 28-day cycle. A DLT was defined as any grade ≥ 3 nonhaematologic toxicity, according to NCI CTCAE version 4.03.
smiles,measurement,setting,value
CC(C)NC(=O)[C@H]1CC[C@@H](n2c(NC(=O)c3ccc(F)cc3)nc3ccc(CN4CCC(C(C)(C)O)CC4)cc32)CC1 [TSR-011],Drug-related TEAE: Abnormal dreams,20 mg Q8h (n = 16),1 (6.3) n (%)
same,Drug-related TEAE: Anaemia,20 mg Q8h (n = 16),0 n (%)
same,Drug-related TEAE: Asthenia,20 mg Q8h (n = 16),1 (6.3) n (%)
same,Drug-related TEAE: Constipation,20 mg Q8h (n = 16),2 (12.5) n (%)
same,Drug-related TEAE: Decreased appetite,20 mg Q8h (n = 16),1 (6.3) n (%)
same,Drug-related TEAE: Diarrhoea,20 mg Q8h (n = 16),1 (6.3) n (%)
same,Drug-related TEAE: Dysaesthesia,20 mg Q8h (n = 16),1 (6.3) n (%)
same,Drug-related TEAE: Dysgeusia,20 mg Q8h (n = 16),0 n (%)
same,Drug-related TEAE: Electrocardiogram QTc prolonged,20 mg Q8h (n = 16),1 (6.3) n (%)
same,Drug-related TEAE: Fatigue,20 mg Q8h (n = 16),1 (6.3) n (%)
same,Drug-related TEAE: Headache,20 mg Q8h (n = 16),0 n (%)
same,Drug-related TEAE: Hot flush,20 mg Q8h (n = 16),1 (6.3) n (%)
same,Drug-related TEAE: Increased transaminases,20 mg Q8h (n = 16),0 n (%)
same,Drug-related TEAE: Insomnia,20 mg Q8h (n = 16),0 n (%)
same,Drug-related TEAE: Myalgia,20 mg Q8h (n = 16),0 n (%)
same,Drug-related TEAE: Nausea,20 mg Q8h (n = 16),0 n (%)
same,Drug-related TEAE: Peripheral oedema,20 mg Q8h (n = 16),0 n (%)
same,Drug-related TEAE: Rash,20 mg Q8h (n = 16),0 n (%)
same,Drug-related TEAE: Vomiting,20 mg Q8h (n = 16),2 (12.5) n (%)
same,Grade 3 TEAE: Anaemia,20 mg Q8h (n = 16),2 (12.5) n (%)
same,Grade 3 TEAE: Ascites,20 mg Q8h (n = 16),1 (6.3) n (%)
same,Grade 3 TEAE: Asthenia,20 mg Q8h (n = 16),1 (6.3) n (%)
same,Grade 3 TEAE: Dyspnoea,20 mg Q8h (n = 16),0 n (%)
same,Grade 3 TEAE: Electrocardiogram QTc prolonged,20 mg Q8h (n = 16),0 n (%)
same,Grade 3 TEAE: Fatigue,20 mg Q8h (n = 16),1 (6.3) n (%)
same,Grade 3 TEAE: Metastases to the central nervous system,20 mg Q8h (n = 16),1 (6.3) n (%)
same,Patients with any TEAE,20 mg Q8h (n = 16),16 (100.0) Number (%)
same,Patients with any TEAE leading to treatment discontinuation,20 mg Q8h (n = 16),2 (12.5) Number (%)
same,Patients with any serious TEAE,20 mg Q8h (n = 16),7 (43.8) Number (%)
same,Patients with any study drug-related TEAE,20 mg Q8h (n = 16),9 (56.3) Number (%)
same,Patients with ≥ 1 treatment-emergent SAE,20 mg Q8h (n = 16),7 (43.8) n (%)
same,SAE class: Blood and lymphatic system disorders,20 mg Q8h (n = 16),0 n (%)
same,SAE class: Cardiac disorders,20 mg Q8h (n = 16),0 n (%)
same,SAE class: Gastrointestinal disorders,20 mg Q8h (n = 16),1 (6.3) n (%)
same,SAE class: General disorders and administration-site conditions,20 mg Q8h (n = 16),2 (12.5) n (%)
same,SAE class: Hepatobiliary disorders,20 mg Q8h (n = 16),1 (6.3) n (%)
same,SAE class: Infections and infestations,20 mg Q8h (n = 16),1 (6.3) n (%)
same,SAE class: Metabolism and nutrition disorders,20 mg Q8h (n = 16),1 (6.3) n (%)
same,SAE class: Musculoskeletal and connective tissue disorders,20 mg Q8h (n = 16),1 (6.3) n (%)
same,"SAE class: Neoplasms benign, malignant and unspecified (including cysts and polyps)",20 mg Q8h (n = 16),2 (12.5) n (%)
same,SAE class: Nervous system disorders,20 mg Q8h (n = 16),1 (6.3) n (%)
same,"SAE class: Respiratory, thoracic and mediastinal disorders",20 mg Q8h (n = 16),0 n (%)
same,SAE class: Vascular disorders,20 mg Q8h (n = 16),1 (6.3) n (%)
same,SAE: Abdominal pain,20 mg Q8h (n = 16),0 n (%)
same,SAE: Anaemia,20 mg Q8h (n = 16),0 n (%)
same,SAE: Asthenia,20 mg Q8h (n = 16),1 (6.3) n (%)
same,SAE: Basal cell carcinoma,20 mg Q8h (n = 16),1 (6.3) n (%)
same,SAE: Bone pain,20 mg Q8h (n = 16),1 (6.3) n (%)
same,SAE: Deep-vein thrombosis,20 mg Q8h (n = 16),1 (6.3) n (%)
same,SAE: Dehydration,20 mg Q8h (n = 16),1 (6.3) n (%)
same,SAE: Disease progression,20 mg Q8h (n = 16),2 (12.5) n (%)
same,SAE: Dyspnoea,20 mg Q8h (n = 16),0 n (%)
same,SAE: Gastric haemorrhage,20 mg Q8h (n = 16),1 (6.3) n (%)
same,SAE: Gastric ulcer helicobacter,20 mg Q8h (n = 16),0 n (%)
same,SAE: Infection,20 mg Q8h (n = 16),0 n (%)
same,SAE: Lower respiratory tract infection,20 mg Q8h (n = 16),0 n (%)
same,SAE: Mastoiditis,20 mg Q8h (n = 16),1 (6.3) n (%)
same,SAE: Mental impairment,20 mg Q8h (n = 16),1 (6.3) n (%)
same,SAE: Metastases to the central nervous system,20 mg Q8h (n = 16),1 (6.3) n (%)
same,SAE: Pericardial effusion,20 mg Q8h (n = 16),0 n (%)
same,SAE: Pleural effusion,20 mg Q8h (n = 16),0 n (%)
same,SAE: Pneumonia,20 mg Q8h (n = 16),0 n (%)
same,SAE: Portal vein thrombosis,20 mg Q8h (n = 16),1 (6.3) n (%)
same,SAE: Seizure,20 mg Q8h (n = 16),1 (6.3) n (%)
same,SAE: Subarachnoid haemorrhage,20 mg Q8h (n = 16),0 n (%)
same,Total number of TEAEs,20 mg Q8h (n = 16),159
same,Total number of treatment-emergent SAEs,20 mg Q8h (n = 16),14
same,Patients with any AE leading to death,"20 mg Q8h (n = 16), none deemed related to treatment",2 (12.5) Number (%)
same,Drug-related TEAE: Abnormal dreams,40 mg Q8h (n = 31),0 n (%)
same,Drug-related TEAE: Anaemia,40 mg Q8h (n = 31),1 (3.2) n (%)
same,Drug-related TEAE: Asthenia,40 mg Q8h (n = 31),0 n (%)
same,Drug-related TEAE: Constipation,40 mg Q8h (n = 31),2 (6.5) n (%)
same,Drug-related TEAE: Decreased appetite,40 mg Q8h (n = 31),0 n (%)
same,Drug-related TEAE: Diarrhoea,40 mg Q8h (n = 31),0 n (%)
same,Drug-related TEAE: Dysaesthesia,40 mg Q8h (n = 31),0 n (%)
same,Drug-related TEAE: Dysgeusia,40 mg Q8h (n = 31),0 n (%)
same,Drug-related TEAE: Electrocardiogram QTc prolonged,40 mg Q8h (n = 31),3 (9.7) n (%)
same,Drug-related TEAE: Fatigue,40 mg Q8h (n = 31),0 n (%)
same,Drug-related TEAE: Headache,40 mg Q8h (n = 31),0 n (%)
same,Drug-related TEAE: Hot flush,40 mg Q8h (n = 31),0 n (%)
same,Drug-related TEAE: Increased transaminases,40 mg Q8h (n = 31),0 n (%)
same,Drug-related TEAE: Insomnia,40 mg Q8h (n = 31),2 (6.5) n (%)
same,Drug-related TEAE: Myalgia,40 mg Q8h (n = 31),0 n (%)
same,Drug-related TEAE: Nausea,40 mg Q8h (n = 31),1 (3.2) n (%)
same,Drug-related TEAE: Peripheral oedema,40 mg Q8h (n = 31),1 (3.2) n (%)
same,Drug-related TEAE: Rash,40 mg Q8h (n = 31),1 (3.2) n (%)
same,Drug-related TEAE: Vomiting,40 mg Q8h (n = 31),1 (3.2) n (%)
same,Grade 3 TEAE: Anaemia,40 mg Q8h (n = 31),2 (6.5) n (%)
same,Grade 3 TEAE: Ascites,40 mg Q8h (n = 31),0 n (%)
same,Grade 3 TEAE: Asthenia,40 mg Q8h (n = 31),1 (3.2) n (%)
same,Grade 3 TEAE: Dyspnoea,40 mg Q8h (n = 31),0 n (%)
same,Grade 3 TEAE: Electrocardiogram QTc prolonged,40 mg Q8h (n = 31),1 (3.2) n (%)
same,Grade 3 TEAE: Fatigue,40 mg Q8h (n = 31),0 n (%)
same,Grade 3 TEAE: Metastases to the central nervous system,40 mg Q8h (n = 31),1 (3.2) n (%)
same,Patients with any TEAE,40 mg Q8h (n = 31),29 (93.5) Number (%)
same,Patients with any TEAE leading to treatment discontinuation,40 mg Q8h (n = 31),5 (16.1) Number (%)
same,Patients with any serious TEAE,40 mg Q8h (n = 31),12 (38.7) Number (%)
same,Patients with any study drug-related TEAE,40 mg Q8h (n = 31),13 (41.9) Number (%)
same,Patients with ≥ 1 treatment-emergent SAE,40 mg Q8h (n = 31),12 (38.7) n (%)
same,SAE class: Blood and lymphatic system disorders,40 mg Q8h (n = 31),2 (6.5) n (%)
same,SAE class: Cardiac disorders,40 mg Q8h (n = 31),1 (3.2) n (%)
same,SAE class: Gastrointestinal disorders,40 mg Q8h (n = 31),1 (3.2) n (%)
same,SAE class: General disorders and administration-site conditions,40 mg Q8h (n = 31),2 (6.5) n (%)
same,SAE class: Hepatobiliary disorders,40 mg Q8h (n = 31),0 n (%)
same,SAE class: Infections and infestations,40 mg Q8h (n = 31),4 (12.9) n (%)
same,SAE class: Metabolism and nutrition disorders,40 mg Q8h (n = 31),0 n (%)
same,SAE class: Musculoskeletal and connective tissue disorders,40 mg Q8h (n = 31),0 n (%)
same,"SAE class: Neoplasms benign, malignant and unspecified (including cysts and polyps)",40 mg Q8h (n = 31),1 (3.2) n (%)
same,SAE class: Nervous system disorders,40 mg Q8h (n = 31),2 (6.5) n (%)
same,"SAE class: Respiratory, thoracic and mediastinal disorders",40 mg Q8h (n = 31),1 (3.2) n (%)
same,SAE class: Vascular disorders,40 mg Q8h (n = 31),0 n (%)
same,SAE: Abdominal pain,40 mg Q8h (n = 31),1 (3.2) n (%)
same,SAE: Anaemia,40 mg Q8h (n = 31),2 (6.5) n (%)
same,SAE: Asthenia,40 mg Q8h (n = 31),0 n (%)
same,SAE: Basal cell carcinoma,40 mg Q8h (n = 31),0 n (%)
